Measurements taken from PMC11555526, “Development of 2-Aminoadenine-Based Proteolysis-Targeting Chimeras (PROTACs) as Novel Potent Degraders of Monopolar Spindle 1 and Aurora Kinases” (ACS Pharmacology & Translational Science, 2024).

Legend:
[1] = test system: AURKB; set-up: method as in PMID 32338514, PMID 27905678, PMID 27437075, PMID 30232224, PMID 27699881; details: literature values, introduction and Figure 1; cited from earlier work
[2] = test system: AURKA; set-up: method as in PMID 32338514, PMID 27905678, PMID 27437075, PMID 30232224, PMID 27699881; details: literature values, introduction and Figure 1; cited from earlier work
[3] = test system: AURKA; details: reported PROTACs; cited from earlier work
[4] = test system: TTK; set-up: method as in PMID 35084180; details: reported PROTAC; cited from earlier work
[5] = molecular target: T1, TTK (MV4-11^HiBiT-TTK cells) (Homo sapiens, UniProt P33981); assay: HiBiT assay, TTK degradation; assay type: cell-based; set-up: key to Dmax (maximal degradation) TTK: compounds with degradation less than 15% reported as “inactive”; details: 6 h treatment, MV4-11^HiBiT-TTK cells
T1 construct: expressed in transfected cells; host or cells: MV4-11, lentiviral transduction (pRRL-PGK-HiBiT entry vector)
T1 sequence (P33981 1-857): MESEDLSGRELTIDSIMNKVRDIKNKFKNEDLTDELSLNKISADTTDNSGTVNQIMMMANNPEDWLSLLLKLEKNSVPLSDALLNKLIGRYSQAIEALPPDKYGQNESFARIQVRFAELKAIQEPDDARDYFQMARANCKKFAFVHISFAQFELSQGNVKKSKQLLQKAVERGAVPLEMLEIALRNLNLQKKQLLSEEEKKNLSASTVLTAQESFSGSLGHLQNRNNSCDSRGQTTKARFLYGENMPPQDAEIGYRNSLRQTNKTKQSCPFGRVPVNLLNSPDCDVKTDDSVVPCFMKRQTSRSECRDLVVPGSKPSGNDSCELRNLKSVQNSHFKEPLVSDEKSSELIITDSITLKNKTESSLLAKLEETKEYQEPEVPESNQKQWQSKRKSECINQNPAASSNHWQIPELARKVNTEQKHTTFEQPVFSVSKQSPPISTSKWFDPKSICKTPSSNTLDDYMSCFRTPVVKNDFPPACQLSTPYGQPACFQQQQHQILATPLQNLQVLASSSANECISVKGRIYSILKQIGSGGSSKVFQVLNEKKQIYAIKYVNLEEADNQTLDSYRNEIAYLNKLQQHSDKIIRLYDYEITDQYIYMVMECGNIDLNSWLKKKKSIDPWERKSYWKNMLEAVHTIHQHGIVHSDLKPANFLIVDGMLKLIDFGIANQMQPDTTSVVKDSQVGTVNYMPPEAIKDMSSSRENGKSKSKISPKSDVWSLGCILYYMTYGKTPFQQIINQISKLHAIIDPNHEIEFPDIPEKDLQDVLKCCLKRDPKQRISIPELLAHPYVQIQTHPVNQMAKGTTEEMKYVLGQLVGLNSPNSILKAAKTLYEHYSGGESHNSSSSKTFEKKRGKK
Method in brief: (§1)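 MV4-11 lines stably expressing HiBiT-tagged AURKA, AURKB or TTK (lentiviral) were treated with serial compound dilutions for the indicated times. Remaining tagged protein was read by lytic HiBiT luminescence, and DC50 was fitted with a four-parameter dose–response equation using concentrations showing sigmoidal behaviour.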

[6] = molecular target: T2, AURKA (MV4-11^AURKA-HiBiT cells) (Homo sapiens, UniProt O14965); assay: HiBiT assay, AURKA degradation; assay type: cell-based; details: 6 h treatment, MV4-11^AURKA-HiBiT cells
T2 construct: expressed in transfected cells; host or cells: MV4-11, lentiviral transduction
T2 sequence (O14965 1-403): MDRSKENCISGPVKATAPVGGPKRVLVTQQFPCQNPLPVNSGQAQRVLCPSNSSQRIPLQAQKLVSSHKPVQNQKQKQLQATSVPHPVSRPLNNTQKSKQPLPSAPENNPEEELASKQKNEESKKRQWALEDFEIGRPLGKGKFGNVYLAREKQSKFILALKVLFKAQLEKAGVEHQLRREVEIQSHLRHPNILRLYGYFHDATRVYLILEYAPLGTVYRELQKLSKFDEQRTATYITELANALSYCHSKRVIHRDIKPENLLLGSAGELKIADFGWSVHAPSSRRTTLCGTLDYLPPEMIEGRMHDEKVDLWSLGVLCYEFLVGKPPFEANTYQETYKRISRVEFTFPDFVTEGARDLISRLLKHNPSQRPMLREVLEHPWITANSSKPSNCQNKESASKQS
Method in brief: as §1

[7] = test system: human TTK; set-up: method as in PMID 23940287, PMID 32338514, PMID 27905678, PMID 27437075, PMID 30232224; details: literature values, introduction and Figure 1; cited from earlier work
[8] = test system: MV4-11 cells (naive); assay: alamarBlue cell viability assay; assay type: cell-based, human; details: Homo sapiens; 72 h treatment, MV4-11 cells (naive); read-out: EC50 (concentration that decreases cell viability by 50%)
Method in brief: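 Cells exposed to compound concentration series or vehicle for 72 h (unless otherwise stated); alamarBlue added a few hours before end point. Read-out by fluorescence (ex 550/em 600 nm) or absorbance (570 nm, 600 nm reference).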

[9] = molecular target: T3, AURKB (MV4-11^AURKB-HiBiT cells) (Homo sapiens, UniProt Q96GD4); assay: HiBiT assay, AURKB degradation; assay type: cell-based; details: 6 h treatment
T3 construct: expressed in transfected cells; host or cells: MV4-11, lentiviral transduction (pRRL-PGK vector)
T3 sequence (Q96GD4 1-345 isoform Q96GD4-5): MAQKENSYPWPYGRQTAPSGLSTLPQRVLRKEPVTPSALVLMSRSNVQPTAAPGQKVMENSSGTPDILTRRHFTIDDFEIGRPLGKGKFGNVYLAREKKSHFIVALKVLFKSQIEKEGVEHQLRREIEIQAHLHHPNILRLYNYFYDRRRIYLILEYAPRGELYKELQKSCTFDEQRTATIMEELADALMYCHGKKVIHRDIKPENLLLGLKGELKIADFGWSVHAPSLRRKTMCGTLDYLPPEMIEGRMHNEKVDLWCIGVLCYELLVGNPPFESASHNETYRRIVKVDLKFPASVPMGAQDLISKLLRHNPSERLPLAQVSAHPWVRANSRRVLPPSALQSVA
Method in brief: as §1

[10] = test system: AURKC; details: read-out: AURKC IC50; literature value, introduction; cited from earlier work

**Q.** What does the source list for O=C(Nc1c[nH]nc1-c1nc2ccc(CN3CCOCC3)cc2[nH]1)NC1CC1 [AT9283]?
**A.** IC50 [1]: 3 nM; IC50 [2]: 3 nM

**Q.** For COc1cc(Nc2ncc3c(n2)-c2ccc(Cl)cc2C(c2c(F)cccc2OC)=NC3)ccc1C(=O)NCCOCCOCCNC(=O)COc1cccc2c1C(=O)N(C1CCC(=O)NC1=O)C2=O (centres unmarked) [JB170], which DC50 [3] is on record?
**A.** 28 nM

**Q.** For O=C(COc1cccc2c1C(=O)N(C1CCC(=O)NC1=O)C2=O)NCCOCCOCCNC(=O)C1(Cc2cccc(Nc3nccs3)n2)CCC(Oc2cccc(Cl)c2F)CC1 (centres unmarked) [JB300], which DC50 [3] is on record?
**A.** 30 nM

**Q.** For CCC(=O)N[C@H]1CC[C@@H](n2c(=O)cc(C)c3cnc(Nc4ccc(N5CCN(C(=O)CCCC#Cc6ccc7c(c6)CN(C6CCC(=O)NC6=O)C7=O)CC5)cc4OC)nc32)CC1 (some centres unmarked) [LJB-1113157], which DC50 [4] is on record?
**A.** 3.1 nM

**Q.** With COc1cc(N2CCC(O)CC2)ccc1Nc1nc(Nc2ccccc2S(=O)(=O)C(C)C)c2nc[nH]c2n1 [MPS1-IN-3, reference compound] as the compound, how does the “DC50 (half-maximal degradation concentration) TTK” value [5] read?
**A.** – (compounds with degradation less than 25% were not calculated and reported as “–”)

**Q.** And the “Dmax (maximal degradation) TTK” value [5]?
**A.** inactive

**Q.** What about the DC50 ([6]; read-out: DC50 (half-maximal degradation concentration) AURKA) of the same compound?
**A.** 998 nM

**Q.** What about the Dmax ([6]; read-out: Dmax (maximal degradation) AURKA) of the same compound?
**A.** 41.7%

**Q.** And the IC50 [7]?
**A.** 50 nM

**Q.** And the EC50 [8]?
**A.** 1270 nM

**Q.** What about the DC50 ([9]; read-out: DC50 (half-maximal degradation concentration) AURKB) of the same compound?
**A.** 3210 nM

**Q.** What about the Dmax ([9]; read-out: Dmax (maximal degradation) AURKB) of the same compound?
**A.** 43.3%

**Q.** Which IC50 [10] does the source give for c1nc2nc(Nc3ccc(N4CCOCC4)cc3)nc(NC3CCCCC3)c2[nH]1 [Reversine] here?
**A.** 400 nM
